Assay results published in patent US20030220369A1, “Heterocyclic sulfonamide derivatives and their use for potentiating glutamate receptor function” (priority 2003, published 2003).

CC(C)S(=O)(=O)NCC(C)(F)c1ccc(-c2cccc3c2CC(=O)N3)cc1 (stereo not shown) [Example 9, 4-[4-(1-fluoro-1-methyl-2-{[methylethyl)sulfonylamino}-ethyl)phenyl]indolin-2one] showed a melting point of 86 to 87 °C.
